Measurements as given in patent US20160296529A1, “AMINOTRIAZOLOPYRIDINE FOR USE IN THE TREATMENT OF INFLAMMATION, AND PHARMACEUTICAL COMPOSITIONS THEREOF” (priority 2012, published 2016).
Several values for one entry are separate records, joined by “and”; a condition that tells them apart may be missing. Identical values can stand only once. Like-named read-outs stand apart in the source and are kept apart here.

Legend:
[1] = biological target: T1, Recombinant human JAK3 catalytic domain (Homo sapiens, UniProt P52333); test: JAK3 inhibition assay; type: biochemical
T1 construct: amino acids 795-1124; catalog number 08-046; purchased Carna Biosciences 08-046
T1 sequence (P52333 795-1124): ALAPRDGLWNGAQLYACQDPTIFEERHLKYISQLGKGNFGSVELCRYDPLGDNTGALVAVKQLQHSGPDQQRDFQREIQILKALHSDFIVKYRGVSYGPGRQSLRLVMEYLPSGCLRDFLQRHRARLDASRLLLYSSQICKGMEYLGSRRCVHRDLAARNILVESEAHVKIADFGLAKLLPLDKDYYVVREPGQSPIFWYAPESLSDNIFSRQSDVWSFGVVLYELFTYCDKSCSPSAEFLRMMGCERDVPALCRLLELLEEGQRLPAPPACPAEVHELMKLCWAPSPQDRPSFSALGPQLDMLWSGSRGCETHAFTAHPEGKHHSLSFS
Procedure: Recombinant human JAK3 catalytic domain (amino acids 795-1124; catalog number 08-046) was purchased from Carna Biosciences. 0.5 ng JAK3 protein was incubated with 2.5 μg polyGT substrate (Sigma catalog number P0275) in kinase reaction buffer (25 mM Tris pH 7.5, 0.5 mM EGTA, 10 mM MgCl2, 2.5 mM DTT, 0.5 mM Na3VO4, 5 mM b-glycerophosphate, 0.01% Triton X-100, 1 μM non-radioactive ATP, 0.25 μCi ^33P-gamma-ATP (Perkin Elmer, catalog number NEG602K001MC) final concentrations) with or without 5 μL containing test compound or vehicle (DMSO, 1% final concentration), in a total volume of 25 μL, in a polypropylene 96-well plate (Greiner, V-bottom). After 45 min at 30° C., reactions were stopped by adding 25 μL/well of 150 mM phosphoric acid. […] 40 μL/well of Microscint-20 was added, the top of the plates was sealed and readout was performed using the Topcount (Perkin Elmer). Kinase activity was calculated by subtracting counts per min (cpm) obtained in the presence of a positive control inhibitor (10 μM staurosporine) from cpm obtained in the presence of vehicle. The ability of a test compound to inhibit this activity was determined as:
Percentage inhibition=((cpm determined for sample with test compound present−cpm determined for sample with positive control inhibitor) divided by (cpm determined in the presence of vehicle−cpm determined for sample with positive control inhibitor))*100. […]

[2] = system: GM-CSF-induced STAT5 phosphorylation (JAK2-dependent pathway); test: Human whole blood assay (hWBA), GM-CSF stimulation, phospho-STAT5 on CD33+ cells; type: cell-based; conditions: 7 different donors
Procedure: A flow cytometry analysis was performed to establish JAK1 over JAK2 compound selectivity ex vivo using human whole blood. Therefore, blood is taken from human volunteers who gave informed consent. Blood is then equilibrated for 30 min at 37° C. under gentle rocking, then aliquoted in Eppendorf tubes. Compound is added at different concentrations and incubated at 37° C. for 30 min under gentle rocking and subsequently stimulated for 20 min at 37° C. under gentle rocking with interleukin 6 (IL-6) for JAK1-dependent pathway stimulation or GM-CSF for JAK2-dependent pathway stimulation. Phospho-STAT1 and phospho-STAT5 are then evaluated using FACS analysis. […]
Cells were then washed once with 1×PBS and analyzed on a FACSCanto II flow cytometer (BD Biosciences).
50,000 total events were counted and Phospho-STAT5 positive cells were measured after gating on CD33^+ cells. Data were analyzed using the FACSDiva software and correspond to the percentage of inhibition of GM-CSF stimulation calculated from the percentage of positive cells for phosphor-STAT5 on CD33^+ cells.
A flow cytometry analysis was performed to establish JAK1 over JAK2 compound selectivity ex vivo using human whole blood. […] Phospho-STAT1 (for IL-6- and IFNα-stimulated cells) and phospho-STAT5 (for IL-2- and GM-CSF-stimulated cells) levels are then evaluated using FACS analysis. […]

IC50 ([1]; average, read-out: IC50 (average)): > 3.61 µM
IC50 [2]: > 100 µM
SMILES: Nc1nc2cccc(-c3ccc(CN4CCS(=O)(=O)CC4)cc3)n2n1 [Formula I, 5-[4-(1,1-Dioxothiomorpholin-4-ylmethyl)-phenyl]-[1,2,4]triazolo[1,5-a]pyridin-2-ylamine]
IC50 ([1]; individual determinations, read-out: IC50): 2.5 µM and 3.2 µM and 3.37 µM and > 4 µM (5×) and > 3.33 µM (2×) and 3.94 µM
